Values of other authors as cited in US20230381101A1, “AQUEOUS PHARMACEUTICAL COMPOSITIONS COMPRISING SGLT-2 INHIBITORS” (Boehringer Ingelheim Vetmedica GmbH, priority 2022, published 2023).

Details: n-octanol/water; values taken from http://www.chemicalize.org/

| log10P | Structure (SMILES) |
| --- | --- |
| −1.84 | OCC(O)CO [propane-1,2,3-triol] |
| −0.16 | CCO [ethanol] |

| Structure (SMILES) | log10P |
| --- | --- |
| CC(=O)N(C)C [N,N-dimethylacetamide] | −0.583 |
